Assay results published in US5589364A, “Recombinant production of biologically active peptides and proteins” (priority 1994, dated 1996).
Ends that are not written are not given here.

How the values were obtained:
[1] = system: Pseudomonas aeruginosa ATCC 27853; assay: Microdilution broth antibacterial susceptibility assay (NCCLS M7-A2), MIC; assay type: cell-based; settings: lowest concentration completely inhibiting growth; MHB, 16-20 hours, 35-37 C; tested in duplicate
Procedure: (§1) Antibacterial susceptibility testing was performed using a microdilution broth assay according to the guidelines of the National Committee for Clinical Laboratory Standards (NCCLS) Document M7-A2 (NCCLS, 1990). For preparation of peptide stock solutions, the peptide powder as an acetate salt was weighed on an analytical balance and transferred to a polypropylene tube. Stock solutions were prepared at a concentration of 1.024 mg/mL (or, in the case of natural polyphemusin, 1.00 mg/mL) by dissolving the powder in autoclaved (121° C., 20 psi, 20 minutes) deionized water. The peptide solution was used immediately, stored for up to ten days at 4° C., or stored longterm at -70° C. in 1 mL aliquotes in polypropylene cryovials. Mueller-Hinton broth (MHB)(BBL® catalog number 11443) was used in microtiter plates for diluting peptide stock solutions and for diluting each bacterial inoculum. MHB 5 mL prepared tubes (BBL® catalog number 95834) were used to culture an overnight plate of bacteria to the logarithmic phase of growth for inoculating the microtiter plates.
(§2) The bacteria used in the antimicrobial susceptibility testing are the quality control reference strains Staphylococcus aureus ATCC 29213, Escherichia coli ATCC 25922, and Pseudomonas aeruginosa ATCC 27853. Inoculum for each reference strain was prepared by taking a sample of bacteria from a 16-20 hour plate culture and inoculating into 5 mL of MHB (BBL® catalog number 95834) to an absorbance reading of approximately 0.02 at 600 nm (A600) on a Beckman DU®-64 spectrophotometer. The culture was incubated at 35°-37° C. with shaking in a New Brunswick incubator shaker (Model G25) and the growth monitored spectrophotometrically until it reached A600 of approximately 0.6; this absorbance represented approximately 1×10^8 colony-forming units per milliliter (CFUs/mL).
(§3) The culture was then diluted to approximately 1×10^6 CFUs/mL in autoclaved MHB (BBL® catalog number 11443) to produce the parent inoculum. A sample of the parent inoculating culture was diluted in 3 mM phosphate buffer (pH 7.2) through a series of 1:10 dilutions and the 10^-4 and 10^-5 dilutions were plated, incubated overnight at 35°-37° C., and counted the next day to verify inoculum density. Microtiter plates (Corning manufacturer number 2585096) were prepared with the use of a Beckman Biomek® 1000 automated laboratory workstation in combination with manual techniques. The microtiter plate was filled with diluent broth using the Biomek® 1000 instrument. Peptide stock solution was manually added to the top drug well of the microtiter plate using a Rainin Pipetman®, Model P-200. The peptide was serially diluted in twofold dilutions using the Biomek® 1000 instrument. One hundred microliters of the standardized bacterial inoculum was added to every well of the microtiter plates (except the blanks) using an Eppendorf Repeater® Model 4780 pipet equipped with an Eppendorf 5 mL combitip (catalog number 22 26 130-4). All peptides were tested in duplicate. In addition to the test peptide, three standard peptides (Magainin 2, MSI-63, and MSI-98) and a non-treated growth control were included to validate the assay. The final concentrations of peptide solution in the microtiter wells ranged from 0.25 ug/mL to 256 ug/mL. The final concentration of bacteria in the microtiter wells was 1-5×10^5 CFUs/mL. The final solution volume in each well was 200 uL. The microtiter plates were incubated overnight (16-20 hours) at 35°-37° C. after preparation in a Precision mechanical convection oven incubator Model 30M.
(§4) This value was determined using the unaided eye. In addition, for a permanent record, the absorbance at 630 nm was read on a Dynatech MR5000 Microplate Reader, Version 2.7, and a printed record was generated on an Epson LX800 dot-matrix printer.

[2] = system: Staphylococcus aureus ATCC 29213; assay: as above; assay type: cell-based; settings: lowest concentration completely inhibiting growth; MHB, 16-20 hours, 35-37 C; tested in duplicate
Procedure: as §1, §2, §3, §4

[3] = system: Escherichia coli ATCC 25922; assay: as above; assay type: cell-based; settings: lowest concentration completely inhibiting growth; MHB, 16-20 hours, 35-37 C; tested in duplicate
Procedure: as §1, §2, §3, §4

[4] = system: reference strains Staphylococcus aureus ATCC 29213, Escherichia coli ATCC 25922, and Pseudomonas aeruginosa ATCC 27853; assay: Antimicrobial susceptibility assay as in Example 1, organism not specified per result; assay type: cell-based
Procedure: Antibacterial susceptibility testing was performed using a microdilution broth assay according to the guidelines of the National Committee for Clinical Laboratory Standards (NCCLS) Document M7-A2 (NCCLS, 1990). For preparation of peptide stock solutions, the peptide powder as an acetate salt was weighed on an analytical balance and transferred to a polypropylene tube. Stock solutions were prepared at a concentration of 1.024 mg/mL (or, in the case of natural polyphemusin, 1.00 mg/mL) by dissolving the powder in autoclaved (121° C., 20 psi, 20 minutes) deionized water. […]
as §2, with “(CFUs/mL). […]” for “(CFUs/mL).”
This value was determined using the unaided eye. […]

[5] = system: E. coli ATCC strain 25922; assay: Bacterial growth inhibition assay, aliquots spotted onto a bacterial lawn; assay type: cell-based, Escherichia coli; settings: purified recombinant peptide at 0.4 ug/mL; half-strength trypticase soy broth agar with 50 mM sodium fluoride
Procedure: Small aliquots of recombinant MSI-556 and other HPLC fractions from the CNBr digest of MBP-MSI-556 fusion protein were spotted onto a lawn of E. coli ATCC strain 25922 grown on a half-strength trypticase soy broth agar plate containing 50 mM sodium fluoride.

Row | Substance | Minimum Inhibitory Concentration, Test Organism: Pseudo. aeruginosa [1] | Minimum Inhibitory Concentration, Test Organism: Staph. aureus [2] | Minimum Inhibitory Concentration, Test Organism: E. coli [3] | Bioactivity in antimicrobial susceptibility assay ([4]; HPLC-purified recombinant peptide, without reformation of the two disulfide bridges) | Bacterial lawn growth inhibition as judged visually [5] | Spectrum of antibacterial activity (summary of Table I) ([4]; unamidated peptides, conclusion from MIC values)
1 | GIGKFLKKAKKFGKAFVKILKK-NH2 [MSI-78] | 4 to 8 µg/mL | 8 to 16 µg/mL | 8 µg/mL |  |  | 
2 | NH2 --RRWCFRVCYRGFCYRKCRG--OH (H-RRWCFRVCYRGFCYRKCRG-OH; cysteine pairing not given here) [Lim1] |  |  |  | bioactive |  | 
3 | GIGKFLHSAKKFGKAFVGEIMNS [Native Magainin 2, reference compound] | 256 µg/mL | 256 µg/mL | 64 to 128 µg/mL |  |  | 
4 | NH2 --GIGKFLKKAKKFGKAGVKILKKG--OH [MSI-556] | 4 µg/mL | 16 µg/mL | 4 to 16 µg/mL |  | significant antimicrobial activity | broadly active against both gram-negative and gram-positive human pathogenic bacteria
